# Results reported in patent US20250243196A1, “CITRON KINASE INHIBITORS” (The Cleveland Clinic Foundation, priority 2021, published 2025).
# Key:
# Assay type in all cases: biochemical
# [1] = target: Mnk2 (Homo sapiens (Human), UniProt Q9HBH9); experiment: KinaseProfiler radiometric assay (14-664KP); settings: mean of at least two independent experiments
# Description: In another aspect, disclosed is a method of inhibiting citron kinase in a sample, comprising contacting the sample with a compound described herein (e.g., a compound of formula (I) or a pharmaceutically acceptable salt thereof), or a pharmaceutical composition described herein (e.g., a pharmaceutical composition comprising a compound of formula (I) or a pharmaceutically acceptable salt thereof), in an amount effective to inhibit citron kinase. In some embodiments, the step of contacting the sample with the compound comprises administering the compound to a subject (e.g., a subject) suffering from cancer. Methods of determining kinase inhibition are well known in the art. For example, kinase activity of an enzyme and the inhibitory capacity of a test compound can be determined by measuring enzyme specific phosphorylation of a substrate. Commercial assays and kits can be employed. For example, kinase inhibition can be determined using a radiometric binding assay, such as using KinaseProfiler™ technology (Eurofins Discovery). This assay method directly detects product formation without the use of modified substrates or coupling enzymes. […]
# The effect of various compounds on the inhibition of other kinases has also been determined. Table 2 reports measured IC50 values; value units are nanomolar inhibition.
# [2] = target: ALK2(h) (Homo sapiens (Human), UniProt Q04771); experiment: KinaseProfiler panel; parameters: dose or concentration left out as unconfirmed; settings: activity remaining
# [3] = target: Axl(h) (Homo sapiens (Human), UniProt P30530); experiment: KinaseProfiler panel; parameters: dose or concentration left out as unconfirmed; settings: activity remaining
# [4] = target: Blk(h) (Homo sapiens (Human), UniProt P51451); experiment: KinaseProfiler panel; parameters: dose or concentration left out as unconfirmed; settings: activity remaining
# [5] = target: BMPR2(h) (Homo sapiens (Human), UniProt Q13873); experiment: KinaseProfiler panel; parameters: dose or concentration left out as unconfirmed; settings: activity remaining
# [6] = target: CaMKIγ(h) (Homo sapiens (Human), UniProt Q96NX5); experiment: KinaseProfiler panel; parameters: dose or concentration left out as unconfirmed; settings: activity remaining
# [7] = target: Cdc7/cyclinB1(h) (Homo sapiens, UniProt O00311); experiment: KinaseProfiler panel; parameters: dose or concentration left out as unconfirmed; settings: activity remaining
# [8] = target: CLK1(h) (Homo sapiens (Human), UniProt P49759); experiment: KinaseProfiler panel; parameters: dose or concentration left out as unconfirmed; settings: activity remaining
# [9] = target: DCAMKL2(h) (Homo sapiens (Human), UniProt Q8N568); experiment: KinaseProfiler panel; parameters: dose or concentration left out as unconfirmed; settings: activity remaining
# [10] = target: EphA4(h) (Homo sapiens (Human), UniProt P54764); experiment: KinaseProfiler panel; parameters: dose or concentration left out as unconfirmed; settings: activity remaining
# [11] = target: GRK3(h) (Homo sapiens (Human), UniProt P35626); experiment: KinaseProfiler panel; parameters: dose or concentration left out as unconfirmed; settings: activity remaining
# [12] = target: HPK1(h) (Homo sapiens (Human), UniProt Q92918); experiment: KinaseProfiler panel; parameters: dose or concentration left out as unconfirmed; settings: activity remaining
# [13] = target: IRAK1(h) (Homo sapiens (Human), UniProt P51617); experiment: KinaseProfiler panel; parameters: dose or concentration left out as unconfirmed; settings: activity remaining
# [14] = target: JNK2α2(h) (Homo sapiens (Human), UniProt P45984); experiment: KinaseProfiler panel; parameters: dose or concentration left out as unconfirmed; settings: activity remaining
# [15] = target: MARK3(h) (Homo sapiens (Human), UniProt P27448); experiment: KinaseProfiler panel; parameters: dose or concentration left out as unconfirmed; settings: activity remaining
# [16] = target: PAK2(h) (Homo sapiens (Human), UniProt Q13177); experiment: KinaseProfiler panel; parameters: dose or concentration left out as unconfirmed; settings: activity remaining
# [17] = target: PASK(h) (Homo sapiens (Human), UniProt Q96RG2); experiment: KinaseProfiler panel; parameters: dose or concentration left out as unconfirmed; settings: activity remaining
# [18] = target: PIP5K1a(h) (Homo sapiens (Human), UniProt Q99755); experiment: KinaseProfiler panel; parameters: dose or concentration left out as unconfirmed; settings: activity remaining
# [19] = target: PIP5K1g(h) (Homo sapiens (Human), UniProt O60331); experiment: KinaseProfiler panel; settings: activity remaining
# [20] = target: PKCβII(h) (Homo sapiens (Human), UniProt P05771); experiment: KinaseProfiler panel; parameters: dose or concentration left out as unconfirmed; settings: activity remaining
# [21] = target: PKCγ(h) (Homo sapiens (Human), UniProt P05129); experiment: KinaseProfiler panel; parameters: dose or concentration left out as unconfirmed; settings: activity remaining
# [22] = target: PRAK(h) (Homo sapiens (Human), UniProt Q8IW41); experiment: KinaseProfiler panel; parameters: dose or concentration left out as unconfirmed; settings: activity remaining
# [23] = target: SGK2(h) (Homo sapiens (Human), UniProt Q9HBY8); experiment: KinaseProfiler panel; parameters: dose or concentration left out as unconfirmed; settings: activity remaining
# [24] = target: TTK(h) (Homo sapiens (Human), UniProt P33981); experiment: KinaseProfiler panel; parameters: dose or concentration left out as unconfirmed; settings: activity remaining
# [25] = target: WNK1(h) (Homo sapiens (Human), UniProt Q9H4A3); experiment: KinaseProfiler panel; parameters: dose or concentration left out as unconfirmed; settings: activity remaining
# [26] = target: ZAP-70(h) (Homo sapiens (Human), UniProt P43403); experiment: KinaseProfiler panel; parameters: dose or concentration left out as unconfirmed; settings: activity remaining
# Sequence of PIP5K1a(h) (Q99755 whole entry): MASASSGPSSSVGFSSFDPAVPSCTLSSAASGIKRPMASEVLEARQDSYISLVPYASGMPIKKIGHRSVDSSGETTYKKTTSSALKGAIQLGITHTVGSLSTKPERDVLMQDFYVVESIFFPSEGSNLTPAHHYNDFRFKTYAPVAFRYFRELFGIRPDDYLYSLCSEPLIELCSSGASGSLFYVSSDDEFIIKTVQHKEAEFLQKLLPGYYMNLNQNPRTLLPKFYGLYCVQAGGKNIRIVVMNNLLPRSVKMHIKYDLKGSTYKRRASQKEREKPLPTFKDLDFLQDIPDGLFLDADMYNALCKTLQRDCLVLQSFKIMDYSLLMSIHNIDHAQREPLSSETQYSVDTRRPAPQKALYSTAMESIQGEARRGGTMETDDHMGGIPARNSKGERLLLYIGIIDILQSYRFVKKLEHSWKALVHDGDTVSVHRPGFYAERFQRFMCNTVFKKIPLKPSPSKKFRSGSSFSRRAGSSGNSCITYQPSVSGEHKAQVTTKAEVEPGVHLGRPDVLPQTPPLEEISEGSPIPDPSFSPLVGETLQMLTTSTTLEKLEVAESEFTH
# Sequence of JNK2α2(h) (P45984 whole entry): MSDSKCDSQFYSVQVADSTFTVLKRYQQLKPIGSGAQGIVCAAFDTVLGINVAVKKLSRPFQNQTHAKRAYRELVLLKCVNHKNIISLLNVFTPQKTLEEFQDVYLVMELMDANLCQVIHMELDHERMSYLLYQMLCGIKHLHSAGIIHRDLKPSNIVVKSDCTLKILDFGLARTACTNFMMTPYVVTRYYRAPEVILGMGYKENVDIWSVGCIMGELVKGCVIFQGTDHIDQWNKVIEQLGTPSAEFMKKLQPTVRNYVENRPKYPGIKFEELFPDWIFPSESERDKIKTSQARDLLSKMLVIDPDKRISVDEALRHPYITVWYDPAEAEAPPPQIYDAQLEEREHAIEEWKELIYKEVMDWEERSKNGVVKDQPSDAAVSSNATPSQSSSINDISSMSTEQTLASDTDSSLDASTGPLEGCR
# Sequence of ALK2(h) (Q04771 21-509): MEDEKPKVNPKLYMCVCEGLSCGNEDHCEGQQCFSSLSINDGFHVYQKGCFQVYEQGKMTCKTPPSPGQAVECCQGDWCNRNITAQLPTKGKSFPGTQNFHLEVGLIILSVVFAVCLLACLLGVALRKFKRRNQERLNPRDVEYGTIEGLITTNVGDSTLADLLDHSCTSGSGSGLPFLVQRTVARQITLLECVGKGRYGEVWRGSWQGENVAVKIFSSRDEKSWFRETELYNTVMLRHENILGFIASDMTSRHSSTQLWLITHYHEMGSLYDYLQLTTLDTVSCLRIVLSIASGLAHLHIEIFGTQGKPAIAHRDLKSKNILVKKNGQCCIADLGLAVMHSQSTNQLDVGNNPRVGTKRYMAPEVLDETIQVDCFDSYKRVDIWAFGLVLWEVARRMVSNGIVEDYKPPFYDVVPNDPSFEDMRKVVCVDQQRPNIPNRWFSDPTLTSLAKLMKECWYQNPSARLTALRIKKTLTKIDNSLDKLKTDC
# Sequence of MARK3(h) (P27448 whole entry): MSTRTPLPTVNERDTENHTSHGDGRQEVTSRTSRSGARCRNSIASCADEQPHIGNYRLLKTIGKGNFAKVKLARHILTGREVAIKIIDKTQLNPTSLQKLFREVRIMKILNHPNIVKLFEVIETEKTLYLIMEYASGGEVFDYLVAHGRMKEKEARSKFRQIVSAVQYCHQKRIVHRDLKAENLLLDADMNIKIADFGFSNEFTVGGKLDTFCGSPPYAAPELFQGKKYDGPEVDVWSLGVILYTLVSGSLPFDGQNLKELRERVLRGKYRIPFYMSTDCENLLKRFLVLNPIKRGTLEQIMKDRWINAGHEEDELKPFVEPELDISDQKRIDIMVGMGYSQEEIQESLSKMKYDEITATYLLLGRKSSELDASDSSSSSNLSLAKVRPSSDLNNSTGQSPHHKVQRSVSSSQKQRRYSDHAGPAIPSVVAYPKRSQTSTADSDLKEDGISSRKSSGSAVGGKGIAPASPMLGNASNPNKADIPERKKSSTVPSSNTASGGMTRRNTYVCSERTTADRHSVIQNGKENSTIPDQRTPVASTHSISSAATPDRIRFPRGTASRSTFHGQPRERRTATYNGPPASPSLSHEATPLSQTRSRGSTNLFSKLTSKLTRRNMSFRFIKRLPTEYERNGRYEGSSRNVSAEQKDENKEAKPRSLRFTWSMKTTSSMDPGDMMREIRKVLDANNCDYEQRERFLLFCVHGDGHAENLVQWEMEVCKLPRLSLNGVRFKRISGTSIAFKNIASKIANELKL
# Sequence of SGK2(h) (Q9HBY8 whole entry): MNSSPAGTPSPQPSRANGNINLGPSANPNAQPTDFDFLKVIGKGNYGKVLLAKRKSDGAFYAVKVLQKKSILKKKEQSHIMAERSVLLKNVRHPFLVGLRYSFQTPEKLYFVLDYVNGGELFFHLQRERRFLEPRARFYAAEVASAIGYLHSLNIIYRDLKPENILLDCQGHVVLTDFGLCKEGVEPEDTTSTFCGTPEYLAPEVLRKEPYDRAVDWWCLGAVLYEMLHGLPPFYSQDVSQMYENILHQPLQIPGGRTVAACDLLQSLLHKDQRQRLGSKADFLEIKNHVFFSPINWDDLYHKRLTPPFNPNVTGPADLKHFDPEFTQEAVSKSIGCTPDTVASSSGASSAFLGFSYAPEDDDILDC
# Sequence of Blk(h) (P51451 whole entry): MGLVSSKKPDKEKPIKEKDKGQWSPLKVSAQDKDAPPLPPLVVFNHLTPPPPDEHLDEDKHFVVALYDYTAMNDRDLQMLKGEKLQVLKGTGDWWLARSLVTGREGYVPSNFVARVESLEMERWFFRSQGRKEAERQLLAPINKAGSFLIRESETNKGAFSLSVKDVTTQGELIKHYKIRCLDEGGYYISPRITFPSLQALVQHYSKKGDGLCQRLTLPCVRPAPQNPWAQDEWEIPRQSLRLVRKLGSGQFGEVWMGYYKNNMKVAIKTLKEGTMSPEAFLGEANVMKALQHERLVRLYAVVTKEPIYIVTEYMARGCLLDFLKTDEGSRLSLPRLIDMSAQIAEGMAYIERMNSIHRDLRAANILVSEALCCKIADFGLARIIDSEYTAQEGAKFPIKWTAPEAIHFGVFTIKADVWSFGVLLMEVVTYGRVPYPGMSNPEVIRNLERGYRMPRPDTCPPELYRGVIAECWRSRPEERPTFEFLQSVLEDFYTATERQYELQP
# Sequence of PKCβII(h) (P05771 other isoform, or with tags, fused parts or gaps): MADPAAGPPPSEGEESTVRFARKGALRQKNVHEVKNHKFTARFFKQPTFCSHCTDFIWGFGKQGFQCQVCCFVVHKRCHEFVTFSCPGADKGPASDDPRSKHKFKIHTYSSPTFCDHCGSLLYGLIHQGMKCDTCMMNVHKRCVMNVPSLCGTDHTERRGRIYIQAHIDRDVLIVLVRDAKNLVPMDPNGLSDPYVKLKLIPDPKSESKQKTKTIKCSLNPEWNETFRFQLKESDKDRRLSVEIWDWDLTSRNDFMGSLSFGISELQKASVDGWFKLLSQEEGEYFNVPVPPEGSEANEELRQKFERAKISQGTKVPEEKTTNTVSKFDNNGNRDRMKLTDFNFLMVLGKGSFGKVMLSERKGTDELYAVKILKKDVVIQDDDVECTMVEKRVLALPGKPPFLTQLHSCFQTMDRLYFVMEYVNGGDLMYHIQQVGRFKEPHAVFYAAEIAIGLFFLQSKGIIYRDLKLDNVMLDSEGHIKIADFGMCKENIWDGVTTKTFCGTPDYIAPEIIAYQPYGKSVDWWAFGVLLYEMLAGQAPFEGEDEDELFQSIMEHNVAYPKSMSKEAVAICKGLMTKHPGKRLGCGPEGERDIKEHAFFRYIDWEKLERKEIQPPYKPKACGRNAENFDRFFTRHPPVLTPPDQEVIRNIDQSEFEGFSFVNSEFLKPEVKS
# Sequence of PRAK(h) (Q8IW41 whole entry): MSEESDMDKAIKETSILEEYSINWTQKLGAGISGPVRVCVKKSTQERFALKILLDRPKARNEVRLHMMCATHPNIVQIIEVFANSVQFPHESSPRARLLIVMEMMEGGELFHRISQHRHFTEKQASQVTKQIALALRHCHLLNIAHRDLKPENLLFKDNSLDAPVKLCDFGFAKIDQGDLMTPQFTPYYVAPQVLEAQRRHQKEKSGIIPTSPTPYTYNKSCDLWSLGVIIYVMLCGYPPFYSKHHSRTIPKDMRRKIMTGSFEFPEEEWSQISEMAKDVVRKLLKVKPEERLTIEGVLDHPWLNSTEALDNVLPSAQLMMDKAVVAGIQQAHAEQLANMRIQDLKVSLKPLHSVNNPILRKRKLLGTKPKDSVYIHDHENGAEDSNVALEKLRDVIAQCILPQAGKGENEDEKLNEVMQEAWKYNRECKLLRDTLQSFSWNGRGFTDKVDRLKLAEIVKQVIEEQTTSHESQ
compound,measurement,setting,value
"Cc1cc2c(-c3ccc(NC(=O)[C@H](N)CC(C)(C)C)cc3C)ccnc2[nH]1 [Compound F-90, (2R)-2-Amino-4,4-dimethyl-N-[3-methyl-4-(2-methyl-1H-pyrrolo[2,3-b]pyridin-4-yl)phenyl]pentanamide]",IC50,[1],2.18 µM
same,% Activity,[2],122%
same,% Activity,[3],91%
same,% Activity,[4],88%
same,% Activity,[5],85%
same,% Activity,[6],110%
same,% Activity,[7],75%
same,% Activity,[8],88%
same,% Activity,[9],104%
same,% Activity,[10],92%
same,% Activity,[11],81%
same,% Activity,[12],73%
same,% Activity,[13],95%
same,% Activity,[14],99%
same,% Activity,[15],90%
same,% Activity,[16],95%
same,% Activity,[17],72%
same,% Activity,[18],103%
same,% Activity,[19],102%
same,% Activity,[20],87%
same,% Activity,[21],97%
same,% Activity,[22],107%
same,% Activity,[23],82%
same,% Activity,[24],102%
same,% Activity,[25],109%
same,% Activity,[26],71%
